Columns and labels:
[1] = test system: mouse neuroblastoma cell line neuro-2a; experiment: Activity on cell line neuro-2a (simple method); type: cell-based
Description: The biological activities in vitro of the compounds of formula (I) on cells of the nervous system were tested. The cells tested were human neuroblastoma cell line GOTO [see Sekiguchi, M., Oota, T., Sakakibara, K., Inui, N. & Fujii, G., Japan. J. Exp. Med., 49, 67-83 (1979)], and neuroblastoma cell line NB-1 [see Miyake, S., Shimo, Y., Kitamura, T., Nojyo, Y., Nakamura, T., Imkashuku, S. and Abe, T., The Autonomic Nervous System, 10, 115-120 (1973)], and mouse neuroblastoma cell line neuro-2a (Dainippon Pharmaceutical Co., Ltd.) which have been established as the cells of the nervous system. The above neuve cells were grown in an incubator at 37° C. in the presence of 5% carbon dioxide gas exponentially, and then cultivated for a certain period of time together with the compounds of formula (I). […]
As a simple method of evaluation, the number of cells have neurites with a length equal to, or larger than, the long diameter of the cell was divided by the total number of cells.

[2] = test system: mouse neuroblastoma cell line neuro-2a; experiment: Activity on neuro-2a, cells with outgrown neurites; type: cell-based
Description: In order to examine the effects of the test compounds, the following method was also employed.
Mouse neuro 2a cells in the logarithmic growth period in the Dulbecco's modified Eagle's medium (DMEM) containing 10% FCS was seeded in a 48-well plate so that the number of cells was 1,000 cells/well, and cultured for one day in 0.25 ml of the culture fluid in each well. The culture medium was then replaced by a medium containing each of the test compounds and FCS, and the cells were further cultured for 24 hours. Then, a 4% aqueous glutaraldehyde solution in the same amount as the medium (0.25 ml) was added, and the culture fluid was left to stand at room temperature for 2 hours to fix the cells. After washing with water, a 0.05% aqueous solution of methylene blue was added to stain the cells. Under a microscope, the number of cells containing outgrown neurites (cells having at least one neutrite with a length at least two times as large as the long diameter of the cell) was counted visually, and the proportion of these cells in the entire cells was calculated. The well was observed over 5 or more visual fields (at least 2% of the entire surface area of the well) continuous to the left and right from a mark put at the center of the well, and more than 200 cells was counted. One drug compound was used in 6 different concentrations at most, and three runs were conducted for each concentration.

mice = experiment: Acute toxicity, mouse; type: in vivo; settings: 24 hours
Description: (§1) The acute toxicity of the compounds of the invention was examined by the following method.
(§2) Male ddy-strain 5-week old mice and male Wistar-strain 8 week old rats, five per group, were used as experimental animals. Each of the compounds was dissolved in saline and administered perorally, and the toxicity of the compound was assessed 24 hours after the administration.

[3] = test system: human neuroblastoma cell line GOTO; experiment: Activity on neuroblastoma cell line GOTO (cell number, number and length of neurites); type: cell-based; settings: for Number of cells (mean ± S.E.): control 5.30 ± 0.23
Description: The biological activities in vitro of the compounds of formula (I) on cells of the nervous system were tested. The cells tested were human neuroblastoma cell line GOTO [see Sekiguchi, M., Oota, T., Sakakibara, K., Inui, N. & Fujii, G., Japan. J. Exp. Med., 49, 67-83 (1979)], and neuroblastoma cell line NB-1 [see Miyake, S., Shimo, Y., Kitamura, T., Nojyo, Y., Nakamura, T., Imkashuku, S. and Abe, T., The Autonomic Nervous System, 10, 115-120 (1973)], and mouse neuroblastoma cell line neuro-2a (Dainippon Pharmaceutical Co., Ltd.) which have been established as the cells of the nervous system. The above neuve cells were grown in an incubator at 37° C. in the presence of 5% carbon dioxide gas exponentially, and then cultivated for a certain period of time together with the compounds of formula (I).
The effect of the compounds of this invention on neuroblastoma cells was examined by the following method.
A culture medium [composed of 45% of RPMI 1640 medium, 45% modified Eagle's medium (MEM) and 10% of fetal calf serum (FCS) and containing penicillin G sodium (100 units/ml) and streptomycin sulfate (100 microgram/ml)] containing neurobalstoma cell line GOTO in the logarithmic growth period was poured in an amount of 2 ml each into polystyrene dishes (35 mm; made by Corning Co.) so that the cell concentration was 2 to 6×10^4 cells per dish, and the cells were cultured for 1 to 2 days in a carbon dioxide gas incubator containing 5% of carbon dioxide gas in air at 37° C. Then, the culture fluid was removed, and 2 ml of a fresh serum-free culture fluid (consisting of 50% of RPMI medium and 50% of MEM medium and containing penicillin G sodium and streptomycin sulfate in the same amounts as above) was added. At the same time, a presterilized PBS solution (phosphate buffered saline) of each of the test compounds in various concentrations was added to each of the dishes. After culturing for 24 hours, the number of living cells was counted. Furthermore, the culture was photographed, and from the photos, the number and length of neurites per cell were measured. The numer of living cells was counted for 3 to 6 dishes by resistance to staining with erythrosine dye. The number and length of the neurites were measured with regard to 6 photos (more than 200 cells per photo).

Acute toxicity, mouse = type: in vivo; settings: in vivo, po, Table 6, p.o., read-out: Presumed LD50
Description: as §1, §2

[4] = test system: rats with crushed sciatic nerves; experiment: Curative effect on rats with crushed sciatic nerves; type: in vivo, rat (male Wistar)
Description: Curative effect on rats with crushed sciatic nerves:
The curing effect of the compound (I) of the invention was tested on rats having crushed scietic nerves as a model of peripheral nervous disorder using (1) a change in the action of the hind paw with the crushed sciatic nerves and (2) a change in the weight of the muscle as an index of the course of degeneration and regeneartion of peripheral nerves.
In the experiment, male Wistar rats (6 weeks old), seven per group, were used. The sciatic nerves were crushed by a method similar to the method of Yamatsu et al. (see Kiyomi Yamatsu, Takenori Kaneko, Akifumi Kitahara and Isao Ohkawa, Journal of Japanese Pharmacological Society, 72, 259-268 (1976) and the method of Hasegawa et al. (see Kazuo Hasegawa, Naoji Mikuni and Yutaka Sakai, Journal of Japanese Pharmacological Society, 74, 721-734 (1978). Specifically, under anesthesia with pentobarbital (40 mg/kg, i.p.), the left side sciatic nerve was exposed at the femur and that site of the exposed scietic nerve which was 5 mm to the center from the branched part between the N. tibialis and the N. suralis was crushed using a modified artery, klomme, having a width of 2 mm and a gap of 0.1 mm. After the operation, the rats were assigned to the test groups at random.
Compound No. 408 was selected as the compound (I) of the invention and intraperitoneally administered to the rats once a day from the day of operation to the 22nd day. A group to which mecobalamin (made by Gedeon Richter Ltd.) was administered and a group to which 0.9% saline was administered were used as controls. The following items were measured with the lapse of time (on the 1st, 4th, 7th, 10th, 14th, 17th, 21st, and 23rd days after the crushing of the scietic nerves).
(1) Change in the action of the side of the hind paw with the crushed scietic nerve:
By a method similar to the method of Hasegawa [Hasegawa, K., Experientia, 34, 750-751 (1978)], the distance between the first and fifth digits of the hind paw was measured.
The ratio of the measured distance to the normal distance was calculated and expressed in percentage (%).
(2) Change in the weight of muscle
It is known that removal of a nerve or its disorder causes atrophy of the muscle which is under its control, and the atrophy is gradually cured by re-control by the nerve. For this reason, a change in the weight of the muscle, which is quantitative, was selected as an index. Twenty-three days after the operation, the soleus muscles of both sides of paws were extracted under anesthesia with pentobarbital, and their weights were measured. The ratio of the weight of the soleus muscle on the crushed side to that of normal side was calculated and expressed in percentage (%).

[5] = Table 3 Run No. 6, 0.1 mM, control 4.4 ± 0.9

O=C1NCc2nc(N3CCNCC3)ncc21 [Compound 620]
Average of the proportions ([1]; Table 2 neuro-2a Run No. 3, 0.01 μg/ml, control 2.0): 13.01%
Average of the proportions ([1]; Table 2 neuro-2a Run No. 3, 0.1 μg/ml, control 2.0): 15.46%
Average of the proportions ([1]; Table 2 neuro-2a Run No. 3, 1 μg/ml, control 2.0): 9.8%
Cells having neurites with a length at least twice the long diameter of cell/total number of cells [2, 5]: 7.2 ± 0.3%
Cells having neurites with a length at least twice the long diameter of cell/total number of cells ([2]; Table 3 Run No. 6, 1 mM, control 4.4 ± 0.9): 10.5 ± 3.2%
Cells having neurites with a length at least twice the long diameter of cell/total number of cells ([2]; Table 3 Run No. 6, 3 mM, control 4.4 ± 0.9): 20.7 ± 2.5%
Cells having neurites with a length at least twice the long diameter of cell/total number of cells ([2]; Table 3 Run No. 9, 0.3 mM, control 2.0 ± 1.0): 6.2 ± 1.5%
Cells having neurites with a length at least twice the long diameter of cell/total number of cells ([2]; Table 3 Run No. 9, 1 mM, control 2.0 ± 1.0): 11.3 ± 3.3%
Cells having neurites with a length at least twice the long diameter of cell/total number of cells ([2]; Table 3 Run No. 9, 3 mM, control 2.0 ± 1.0): 19.6 ± 0.5%
Number of dead animals/number of test animals (mice; Table 7, 1000 mg/kg p.o.): 0/5

Cn1[nH]c2nc(N3CCNCC3)ncc2c1=O [Compound 802]
Number of neurites/cell (mean ± S.D.) ([3]; Table 1, Run No. 7 by footnote, 10 μg/ml, control 1.77 ± 0.68): 2.02 ± 0.71 neurites/cell
Length of neurites (mean ± S.D.) ([3]; Table 1, Run No. 7 by footnote, 10 μg/ml, control 42.20 ± 17.75, all *P <0.01): 52.16 ± 19.79 μm/cell
Average of the proportions ([1]; Table 2 neuro-2a Run No. 2, 1 μg/ml, control 7.9): 19.68%
Average of the proportions ([1]; Table 2 neuro-2a Run No. 2, 10 μg/ml, control 7.9): 15.51%
Cells having neurites with a length at least twice the long diameter of cell/total number of cells [2, 5]: 7.5 ± 2.2%

CC(C)n1ccc2nc(N3CCNCC3)ncc2c1=O [Compound 713]
LD50 at 24 h (Acute toxicity, mouse): > 1000 mg/kg
Number of dead animals/number of test animals (mice; Table 6, 300 mg/kg p.o.): 0/5
Number of dead animals/number of test animals (mice; Table 6, 500 mg/kg p.o.): 0/5
Number of dead animals/number of test animals (mice; Table 6, 1000 mg/kg p.o.): 2/5

C/C1=C2/[N-][C@H]([C@H](CC(N)=O)[C@@]2(C)CCC(=O)NC[C@@H](C)OP(=O)([O-])O[C@H]2[C@@H](O)[C@@H](n3cnc4cc(C)c(C)cc43)O[C@@H]2CO)[C@]2(C)N=C(/C(C)=C3N=C(/C=C4N=C1[C@@H](CCC(N)=O)C\4(C)C)[C@@H](CCC(N)=O)[C@]\3(C)CC(N)=O)[C@@H](CCC(N)=O)[C@]2(C)CC(N)=O.[CH3-].[Co+3] [Mecobalamin, mecobalamin, reference compound]
Rate of recovery of the interdigit distance ([4]; 21st day, 0.5 mg/kg ip, saline 62.0 ± 2.4, ***P < 0.001): 79.1 ± 2.6%
Rate of recovery of the interdigit distance ([4]; 23rd day, 0.5 mg/kg ip, saline 71.1 ± 3.4, **P < 0.01): 88.3 ± 4.0%
interdigit distance, recovery versus saline ([4]; in words, 21st day): apparent tendency to quicker recovery
Rate of recovery in muscle weight ([4]; soleus muscle, 23rd day, 0.5 mg/kg ip, saline 51.8 ± 1.2): 55.0 ± 3.5%

c1ccc(CN2CCN(c3ncccn3)CC2)cc1 [Compound 132]
Number of neurites/cell (mean ± S.D.) ([3]; Table 1 Run No. 5, 1 μg/ml, control 1.96 ± 0.64): 1.95 ± 0.46 neurites/cell
Number of cells (mean ± S.E.) ([3]; Table 1 Run No. 5, 1 μg/ml): 5.63 ± 0.68 × 10^4 /dish
Length of neurites (mean ± S.D.) ([3]; Table 1 Run No. 5, 1 μg/ml, control 46.41 ± 33.28): 52.61 ± 32.09 μm/cell
Number of neurites/cell (mean ± S.D.) ([3]; Table 1 Run No. 5, 10 μg/ml, control 1.96 ± 0.64): 2.03 ± 0.63 neurites/cell
Number of cells (mean ± S.E.) ([3]; Table 1 Run No. 5, 10 μg/ml): 6.26 ± 0.27 × 10^4 /dish
Length of neurites (mean ± S.D.) ([3]; Table 1 Run No. 5, 10 μg/ml, control 46.41 ± 33.28): 52.85 ± 30.00 μm/cell
Cells having neurites with a length at least twice the long diameter of cell/total number of cells ([2]; Table 3 Run No. 1, 0.027 μM, control 2.2 ± 0.8): 4.2 ± 1.0%
Cells having neurites with a length at least twice the long diameter of cell/total number of cells ([2]; Table 3 Run No. 1, 0.27 μM, control 2.2 ± 0.8): 4.3 ± 1.2%
Cells having neurites with a length at least twice the long diameter of cell/total number of cells ([2]; Table 3 Run No. 1, 27 μM, control 2.2 ± 0.8): 4.3 ± 0.5%
Cells having neurites with a length at least twice the long diameter of cell/total number of cells ([2]; Table 3 Run No. 2, 0.1 mM, control 1.9 ± 0.9): 4.4 ± 0.7%
Cells having neurites with a length at least twice the long diameter of cell/total number of cells ([2]; Table 3 Run No. 2, 0.3 mM, control 1.9 ± 0.9): 11.2 ± 1.3%
Cells having neurites with a length at least twice the long diameter of cell/total number of cells ([2]; Table 3 Run No. 2, 1 mM, control 1.9 ± 0.9): 9.1 ± 3.0%
Number of dead animals/number of test animals (mice; Table 7, 1000 mg/kg p.o.): 0/5

CCCn1ccc2nc(N3CCNCC3)ncc2c1=O [Compound 715]
LD50 at 24 h (Acute toxicity, mouse): 550 to 1000 mg/kg
Number of dead animals/number of test animals (mice; Table 6, 300 mg/kg p.o.): 0/5
Number of dead animals/number of test animals (mice; Table 6, 500 mg/kg p.o.): 0/5
Number of dead animals/number of test animals (mice; Table 6, 1000 mg/kg p.o.): 4/5

CCn1cc(C=O)c2nc(N3CCNCC3)ncc2c1=O [Compound 744]
LD50 at 24 h (Acute toxicity, mouse): 550 to 1000 mg/kg
Number of dead animals/number of test animals (mice; Table 6, 500 mg/kg p.o.): 0/5
Number of dead animals/number of test animals (mice; Table 6, 1000 mg/kg p.o.): 3/5

Reference: patent US4959368A, “Therapeutic agent for neurological diseases” (Mitsui Petrochemical Industries Ltd., priority 1986, dated 1990)
